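Cells were grown in 96-well plates and exposed to each compound for 48 hours at five concentrations; endpoints were interpolated linearly between bracketing concentrations, or set to the highest concentration if not reached. Abbreviation: GI50, concentration required for 50% inhibition of growth. TGI is the concentration that stops growth completely.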
How the values were obtained:
Experiment in all cases: NCI anticancer screen, dose series, 48 h
[1] = test system: KM12 colon
[2] = test system: EKVX NSCLC
[3] = test system: HT29 colon
[4] = test system: HL-60(TB) leukemia
[5] = test system: SN12C renal
[6] = test system: LOX IMVI melanoma
[7] = test system: UACC-62 melanoma
[8] = test system: MDA-MB-231 breast
[9] = test system: COLO 205 colon
[10] = test system: HOP-92 NSCLC

| Compound | GI50 [1] [µM] | TGI [1] [µM] | GI50 [2] [µM] | TGI [2] [µM] | GI50 [3] [µM] | TGI [3] [µM] | GI50 [4] [µM] | TGI [4] [µM] | TGI [5] [µM] | TGI [6] [µM] | TGI [7] [µM] | TGI [8] [µM] | TGI [9] [µM] | TGI [10] [µM] | GI50 [10] [µM] | GI50 [5] [µM] | GI50 [6] [µM] | GI50 [7] [µM] | GI50 [8] [µM] | GI50 [9] [µM] |
| --- | --- | --- | --- | --- | --- | --- | --- | --- | --- | --- | --- | --- | --- | --- | --- | --- | --- | --- | --- | --- |
| NCCCCCCNc1cc(-c2cccc(OC(F)(F)F)c2)nc2ccc(N3CCCC3)cc12 | 1.79 | 3.38 | 1.64 | 3.01 | 1.62 | 3.06 | 2.01 | 4 | – | – | – | – | – | – | – | – | – | – | – | – |
| CCCCCCCCCC[C@@H](O)[C@@H]1CC[C@@H]([C@@H]2CC[C@@H]([C@@H](O)CCCCCCCCCCC(O)CC3=CC(C)OC3=O)O2)O1 (some centres undefined) | – | > 10 | – | > 10 | – | > 10 | – | 1.85 | > 10 | > 10 | > 10 | > 10 | > 10 | – | – | – | – | – | – | – |
| O=C(O)C(Cc1cccs1)C(=O)O | – | > 100 | – | > 100 | – | > 100 | – | > 100 | > 100 | > 100 | > 100 | > 100 | > 100 | > 100 | – | – | – | – | – | – |
| COc1ccc(-c2cn3ccnc3c(-c3ccc4ncn(C5CCCCC5)c4c3)n2)cc1 | 1.35 | > 100 | 3.04 | > 100 | – | – | 1.06 | 5.05 | > 100 | > 100 | > 100 | > 100 | 14.4 | > 100 | 1.18 | 2.11 | 0.74 | 0.434 | 2.83 | 2.22 |
| CC(NCCS(=O)(=O)O)C(=O)O (centres undefined) | – | > 100 | – | > 100 | – | > 100 | – | > 100 | > 100 | > 100 | > 100 | – | > 100 | > 100 | – | – | – | – | – | – |
